For assay [1], the target named is T1, human TRPV1 receptor (hTRPV1) (Homo sapiens (Human), UniProt Q8NER1). The assay is described as follows: Acid activation assay (pH 5.0, FLIPR intracellular Ca2+). To be noted: Table 1, 37.5 μM antagonist, percentage of the maximal pH 5.0-induced response remaining; for remaining activity at 37.5 µM: read-out: hTRPV1 H+ (max % remain). The class given is cell-based. On the procedure: Dulbecco's modified Eagle's medium (DMEM) with 4.5 mg/mL D-glucose, fetal bovine serum, L-glutamine, and 2-morpholinoethanesulfonic acid (MES) were purchased from Sigma-Aldrich Co. (St. Louis, Mo.). Dulbecco's phosphate-buffered saline (DPBS) with Ca^2+, Mg^2+, and 1 mg/mL D-glucose (pH 7.4), Geneticin®, 0.25% trypsin-1 mM EDTA, and penicillin-streptomycin were purchased from Invitrogen Corp. (Carlsbad, Calif.). The FLIPR® Calcium 4 assay kit was purchased from Molecular Devices (Sunnyvale, Calif.).
T1 sequence (Q8NER1 whole entry): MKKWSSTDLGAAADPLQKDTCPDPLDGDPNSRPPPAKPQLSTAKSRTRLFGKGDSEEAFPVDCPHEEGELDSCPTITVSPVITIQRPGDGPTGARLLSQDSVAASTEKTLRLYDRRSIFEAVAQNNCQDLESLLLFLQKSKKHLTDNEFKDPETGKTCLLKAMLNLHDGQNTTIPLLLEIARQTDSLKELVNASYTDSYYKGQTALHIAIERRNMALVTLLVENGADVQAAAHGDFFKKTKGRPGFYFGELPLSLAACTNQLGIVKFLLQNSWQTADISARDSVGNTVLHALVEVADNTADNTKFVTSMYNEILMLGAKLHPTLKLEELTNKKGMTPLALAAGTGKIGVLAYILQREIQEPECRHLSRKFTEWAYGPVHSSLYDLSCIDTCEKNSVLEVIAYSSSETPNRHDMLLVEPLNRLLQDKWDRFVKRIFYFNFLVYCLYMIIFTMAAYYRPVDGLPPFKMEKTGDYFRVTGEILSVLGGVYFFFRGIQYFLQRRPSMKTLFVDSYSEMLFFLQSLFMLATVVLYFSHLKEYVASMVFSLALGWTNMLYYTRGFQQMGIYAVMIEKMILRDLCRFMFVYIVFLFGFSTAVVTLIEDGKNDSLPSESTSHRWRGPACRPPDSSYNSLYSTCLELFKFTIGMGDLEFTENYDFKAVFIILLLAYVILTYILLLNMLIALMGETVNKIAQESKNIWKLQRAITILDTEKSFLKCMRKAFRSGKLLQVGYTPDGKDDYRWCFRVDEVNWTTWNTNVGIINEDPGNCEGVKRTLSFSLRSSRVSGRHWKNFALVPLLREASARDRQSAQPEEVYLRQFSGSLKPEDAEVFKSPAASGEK
The cDNAs for the human TRPV1 receptor (hTRPV1) were isolated by reverse transcriptase-polymerase chain reaction (RT-PCR) from human small intestine poly A+RNA supplied by Clontech (Palo Alto, Calif.) using primers designed surrounding the initiation and termination codons identical to the published sequences (Hayes et al. Pain 2000, 88, 205-215). The resulting cDNA PCR products were subcloned into pCIneo mammalian expression vector (Promega) and fully sequenced using fluorescent dye-terminator reagents (Prism, Perkin-Elmer Applied Biosystems Division) and a Perkin-Elmer Applied Biosystems Model 373 DNA sequencer or Model 310 genetic analyzer. Expression plasmids encoding the hTRPV1 cDNA were transfected individually into 1321N1 human astrocytoma cells using Lipofectamine. Forty-eight hours after transfection, the neomycin-resistant cells were selected with growth medium containing 800 μg/mL Geneticin (Gibco BRL). Surviving individual colonies were isolated and screened for TRPV1 receptor activity. Cells expressing recombinant homomeric TRPV1 receptors were maintained at 37° C. in DMEM containing 4 mM L-glutamine, 300 μg/mL G418 (Cal-biochem) and 10% fetal bovine serum under a humidified 5% CO2 atmosphere.
The functional activity of compounds at the TRPV1 receptor was determined by measurement of intracellular Ca^2+ levels ([Ca^2+]i) using the Fluorescence Imaging Plate Reader (FLIPR)^TETRA®. All compounds were tested over a 12-point one-half-log concentration range. Compound stocks, 10 mM, were prepared in DMSO, and diluted serially across a 384-well plate using a Bravo BenchCel workstation (Agilent Technologies, Santa Clara, Calif.).
On the day of the experiment growth medium was removed, and the no-wash FLIPR® Calcium-4 dye (λEX=470-495 nm, λEM=515-575 nm) was added to each well using the Multidrop® dispenser. Cells were incubated for 90-120 minutes in the dark at 25° C. Test compounds were dissolved in DMSO, and plates were prepared using an Agilent Bravo workstation (Agilent Technologies Inc., Santa Clara, Calif.). Compounds were added to the cells 3 minutes prior to the addition of a pH 5.0 solution. Reagents were delivered at a rate of 40 μL/sec, and the final assay volume was 80 μL. Acidic pH solutions were prepared by titration of DPBS/MES with 1 N HCl. The intensity of the fluorescence was captured and digitally transferred to an interfaced PC.

The target of assay [2] is T1, human TRPV1 receptor (hTRPV1). The experiment in a line: Capsaicin activation assay (FLIPR intracellular Ca2+). To be noted: Table 1; inhibition of capsaicin-induced intracellular Ca2+ increase, HEK293 cells expressing human TRPV1; read-out: hTRPV1 cap IC50. Format: cell-based. On the procedure:
Dulbecco's modified Eagle medium (D-MEM) (with 4.5 mg/mL glucose) and fetal bovine serum were obtained from Hyclone Laboratories, Inc. (Logan, Utah). Dulbecco's phosphate-buffered saline (D-PBS) (with 1 mg/mL glucose and 3.6 mg/l Na pyruvate, without phenol red), L-glutamine, hygromycin B, and Lipofectamine® were obtained from Life Technologies (Grand Island, N.Y.). G418 sulfate was obtained from Calbiochem-Novabiochem Corp. (San Diego, Calif.). Capsaicin (8-methyl-N-vanillyl-6-nonenamide) was obtained from Sigma-Aldrich, Co. (St. Louis, Mo.). Fluo-4 AM (N-[4-[6-[(acetyloxy)methoxy]-2,7-difluoro-3-oxo-3H-xanthen-9-yl]-2-[2-[2-[bis[2-[(acetyloxy)methoxy]-2-oxyethyl]amino]-5-methyl phenoxy]ethoxy]phenyl]-N-[2-[(acetyloxy)methoxy]-2-oxyethyl]-glycine, (acetyloxy)methyl ester) was purchased from Molecular Probes (Eugene, Oreg.). […]
The functional activity of compounds at the TRPV1 receptor was determined by measurement of intracellular Ca^2+ levels ([Ca^2+]i) using the Fluorescence Imaging Plate Reader (FLIPR)^TETRA®. All compounds were tested over a 12-point one-third-log concentration range. Compound stocks, 10 mM, were prepared in DMSO, and diluted serially across a 384-well plate using a Bravo BenchCel workstation (Agilent Technologies, Santa Clara, Calif.). A stock concentration of capsaicin (10 mM) was made in DMSO, and diluted in D-PBS to a final concentration of 200 nM (4×). On the day prior to the experiment, recombinant HEK293 cells that stably express human TRPV1 were removed from tissue culture flasks and plated in growth medium into black-walled clear-bottom 384-well Biocoat™ poly-D-lysine assay plates (BD Biosciences, Bedford, Mass.) using a Multidrop® dispenser (ThermoScientific, Waltham, Mass.). On the day of the experiment, growth medium was removed, and the no-wash FLIPR® Calcium-4 dye (λEX=470-495 nm, λEM=515-575 nm; Molecular Devices, Sunnyvale, Calif.) was added to each well using the Multidrop® dispenser. Cells were incubated for 90-120 minutes in the dark at room temperature. Test compounds were added to the cells 3 minutes prior to the addition of 200 nM capsaicin (4×), and the final assay volume was 80 μL. Fluorescence readings were made at 1 to 5 second intervals over the course of the experimental run. The peak increase in relative fluorescence units (minus baseline) was calculated, and expressed as a percentage of the 50 nM capsaicin (control) response.

pIC50: −log10 of the molar value.

Consider `O=C(Nc1cccc2[nH]ncc12)N[C@H]1CC[C@@H](c2ccccn2)C1` (relative stereo) [Example 38, 1-(1H-indazol-4-yl)-3-[cis-3-(pyridin-2-yl)cyclopentyl]urea], for which the remaining activity at 37.5 µM in assay [1] was found to be 53%.
Regarding `O=C(Nc1cccc2[nH]ncc12)N[C@H]1CC[C@H](c2ccccn2)C1` (relative stereo) [Example 39, 1-(1H-indazol-4-yl)-3-[trans-3-(pyridin-2-yl)cyclopentyl]urea], in assay [1], the remaining activity at 37.5 µM was determined as 33%.
As usually defined, the pIC50 is −log10 of the IC50, conventionally taken in molar units. On to `O=C(Nc1cccc2[nH]ncc12)N[C@H]1CC[C@@](O)(c2ccccc2)C1` (relative stereo) [Example 58, 1-[(trans)-3-hydroxy-3-phenylcyclopentyl]-3-(1H-indazol-4-yl)urea], for which the “hTRPV1 H+ (max % remain)” value in assay [1] amounted to 53%. In addition, the negative logarithm of the IC50 (pIC50) in assay [2] is 5.06.
On to `Cc1csc([C@H]2CC[C@H](NC(=O)Nc3cccc4[nH]ncc34)C2)n1` (relative stereo) [Example 119, 1-(1H-indazol-4-yl)-3-[(trans)-3-(4-methyl-1,3-thiazol-2-yl)cyclopentyl]urea], for which the remaining activity at 37.5 µM in assay [1] came out at 18%.
Same read-out and setting: with `O=C(Nc1cccc2[nH]ncc12)N[C@@H]1CC[C@@H](c2nc(C(F)(F)F)cs2)C1` (relative stereo) [Example 129, 1-(1H-indazol-4-yl)-3-{(1R*,3R*)-3-[4-(trifluoromethyl)-1,3-thiazol-2-yl]cyclopentyl}urea] the figure was 6%; with `O=C(Nc1cccc2[nH]ncc12)N[C@@H]1CC[C@H](c2nc(C(F)(F)F)cs2)C1` (relative stereo) [Example 130, 1-(1H-indazol-4-yl)-3-{(1R*,3S*)-3-[4-(trifluoromethyl)-1,3-thiazol-2-yl]cyclopentyl}urea], 5%.
Turning to `Cc1csc([C@@H]2CC[C@H](NC(=O)Nc3cccc4[nH]ncc34)C2)n1` (single isomer, unassigned) [Example 120, 1-(1H-indazol-4-yl)-3-[(1S*,3R*)-3-(4-methyl-1,3-thiazol-2-yl)cyclopentyl]urea], the remaining activity at 37.5 µM in assay [1] is 54%.
For `Cc1csc([C@H]2CC[C@@H](NC(=O)Nc3cccc4[nH]ncc34)C2)n1` (single isomer, unassigned) [Example 121, 1-(1H-indazol-4-yl)-3-[(1R*,3S*)-3-(4-methyl-1,3-thiazol-2-yl)cyclopentyl]urea], the remaining activity at 37.5 µM in assay [1] stood at 10%.
Regarding `Cc1coc([C@@H]2CC[C@H](NC(=O)Nc3cccc4[nH]ncc34)C2)n1` (single isomer, unassigned) [Example 122, 1-(1H-indazol-4-yl)-3-[(1S*,3R*)-3-(4-methyl-1,3-oxazol-2-yl)cyclopentyl]urea], in assay [1], the remaining activity at 37.5 µM is 68%. Moreover, in assay [2], the pIC50 was 4.69.
On the same counts, the results for `Cc1coc([C@H]2CC[C@@H](NC(=O)Nc3cccc4[nH]ncc34)C2)n1` (single isomer, unassigned) [Example 123, 1-(1H-indazol-4-yl)-3-[(1R*,3S*)-3-(4-methyl-1,3-oxazol-2-yl)cyclopentyl]urea] are 29% and 5.95.
For `Cc1cc2c(NC(=O)N[C@H]3CC[C@@H](c4ncc(C)o4)C3)c(F)ccc2cn1` (stereo in doubt) [Example 125, 1-(6-fluoro-3-methylisoquinolin-5-yl)-3-[(1S*,3R*)-3-(5-methyl-1,3-oxazol-2-yl)cyclopentyl]urea], the remaining activity at 37.5 µM in assay [1] came to 41%.
The same measure, in the same setting: the figure for `Cc1cnc([C@@H]2CC[C@H](NC(=O)Nc3cccc4[nH]ncc34)C2)o1` (stereo in doubt) [Example 126, 1-(1H-indazol-4-yl)-3-[(1S*,3R*)-3-(5-methyl-1,3-oxazol-2-yl)cyclopentyl]urea] is 23%.
For `Cc1cc2c(NC(=O)N[C@@H]3CC[C@H](c4ncc(C)o4)C3)c(F)ccc2cn1` (stereo in doubt) [Example 127, 1-(6-fluoro-3-methylisoquinolin-5-yl)-3-[(1R*,3S*)-3-(5-methyl-1,3-oxazol-2-yl)cyclopentyl]urea], in assay [1], the remaining activity at 37.5 µM worked out at 54%.
As to `Cc1cnc([C@H]2CC[C@@H](NC(=O)Nc3cccc4[nH]ncc34)C2)o1` (stereo in doubt) [Example 128, 1-(1H-indazol-4-yl)-3-[(1R*,3S*)-3-(5-methyl-1,3-oxazol-2-yl)cyclopentyl]urea], the remaining activity at 37.5 µM in assay [1] turned out to be 54%.
As for `O=C(Nc1cccc2c1C[C@H](O)CC2)N[C@H]1CC[C@H](c2ccccc2)C1` [Compound A, 1-[(7R)-7-hydroxy-5,6,7,8-tetrahydronaphthalen-1-yl]-3-[(1S,3S)-3-phenylcyclopentyl]urea, reference compound], the remaining activity at 37.5 µM in assay [1] worked out at 2%. Moreover, the pIC50 in assay [2] was 8.40.
As for `O=C(Nc1cccc2c1C[C@@H](O)CC2)N[C@H]1CC[C@@H](c2ccccc2)C1` [Compound B, 1-[(7S)-7-hydroxy-5,6,7,8-tetrahydronaphthalen-1-yl]-3-[(1S,3R)-3-phenylcyclopentyl]urea, reference compound], in assay [1], the remaining activity at 37.5 µM amounted to 1%. In assay [2], the pIC50 is 8.22.
On the same counts, the results for `O=C(Nc1cccc2c1C[C@@H](O)CC2)N[C@@H]1CC[C@H](c2ccccc2)C1` [Compound C, 1-[(7S)-7-hydroxy-5,6,7,8-tetrahydronaphthalen-1-yl]-3-[(1R,3S)-3-phenylcyclopentyl]urea, reference compound] are 2% and 8.30.
For `O=C(Nc1cccc2c1C[C@@H](O)CC2)N[C@H]1CC[C@H](c2ccccc2)C1` [Compound D, 1-[(7S)-7-hydroxy-5,6,7,8-tetrahydronaphthalen-1-yl]-3-[(1S,3S)-3-phenylcyclopentyl]urea, reference compound], the remaining activity at 37.5 µM in assay [1] came out at 2%. In addition, the negative logarithm of the IC50 (pIC50) in assay [2] was 7.89.
Consider `O=C(Nc1cccc2c1C[C@H](O)CC2)N[C@@H]1CC[C@@H](c2ccccc2)C1` [Compound E, 1-[(7R)-7-hydroxy-5,6,7,8-tetrahydronaphthalen-1-yl]-3-[(1R,3R)-3-phenylcyclopentyl]urea, reference compound], for which the remaining activity at 37.5 µM in assay [1] was found to be 1%. Besides, in assay [2], the pIC50 was 8.30.
On to `O=C(Nc1cccc2[nH]ncc12)N[C@@H]1CCC(c2nc(C(F)(F)F)cs2)C1` (stereo partly drawn) [Example 131, 1-(1H-indazol-4-yl)-3-{(1R)-3-[4-(trifluoromethyl)-1,3-thiazol-2-yl]cyclopentyl}urea], for which the remaining activity at 37.5 µM in assay [1] was 1%.

Values taken from US8802711B2, “TRPV1 antagonists” (AbbVie Inc., priority 2011, dated 2014).
